{"source": "patent US11834663B2", "about": "“Fibrotic treatment” (Monash University, priority 2015, dated 2023)", "tested_on": "hearts of aged (18-22 month old) WT mice", "assay": "Reversal of age-induced cardiac fibrosis and inflammation in aged WT mice (histology, immunofluorescence, western blot)", "assay_type": "in vivo, mouse", "conditions": "aged (~20 month old) WT mice, 4 weeks, FIG. 19", "procedure": "There are 8 different sets of in vivo experiments in this study: • A) Phenotypic characterisation of the heart and blood vessels in global IRAP knockout mice and their WT controls treated for 4 weeks with Angiotensin (Ang) II (800 ng/kg/min; s.c.) where mouse hearts and blood vessels were compared to tissue obtained from young WT and IRAP^−/− mice treated with saline. • B) Prevention of Ang II-induced changes in the cardiovascular system following IRAP inhibitor treatment. In the prevention model, WT mice were treated with Ang II (800 ng/kg/min; s.c.)±the IRAP inhibitor (HFI-419; 500 ng/kg/min for 28 days) or HFI-vehicle (1 DMSO:3 HBC). • C) Phenotypic characterisation of the aged heart, kidney and blood vessels in the global IRAP knockout mice where aged WT and IRAP^−/− mouse hearts, kidneys and blood vessels were compared to tissue obtained from young WT and IRAP^−/− mice. • D) Reversal of the age-induced changes in the cardiovascular system following IRAP inhibitor treatment. In the reversal model, aged WT mice were treated with either saline, IRAP inhibitor (HFI-419 at 500 ng/kg/min; compound 1 at 500 ng/kg/min; compound 2 at 50 ng/kg/min) or HFI-vehicle (1 DMSO: 3 HBC) for 4 weeks. • E) Prevention of ischemic-reperfusion injury in isolated hearts taken from aged global IRAP knockout mice and aged IRAP inhibitor (HFI-419 at 500 ng/kg/min; s.c.) treated WT mice compared to age-matched vehicle-treated (1 DMSO:3 HBC; s.c.) WT controls. • F) Phenotypic characterization of cardiac function using echocardiography in the aged global IRAP knockout mice compared to aged and young WT mice. • G) Phenotypic characterization of liver steatosis in IRAP knockout mice in a high fat diet (HFD) model. • H) Reversal of the salt-induced fibrosis in the liver following IRAP inhibitor treatment.\nAll mice which underwent surgery were anaesthetized with Isoflurane (Isorrane) (5% induction and 2.5% maintenance) and an incision made in the midscapular region through which osmotic minipumps (Alzet model 2004, Alza Corp) were inserted for subcutaneous drug administration. The incision area was sutured with 6/0 DY silk (Dynek Pty Ltd) and antibiotic powder applied (Cicatrin, Pfizer) followed by intramuscular injection of the analgesic Cartrophen (0.1 ml of a 1.5 mg/ml stock solution; Biopharm Australia). Systolic blood pressure (SBP) was measured fortnightly using non-invasive tail-cuff plethysmography apparatus (MC4000 Blood Pressure Analysis System, Hatteras Instrument Inc) before drug treatment (week 0), at week 2 of treatment and end of treatment (week 4). At the end of drug treatment, body weight of mice was recorded. Mice were anaesthetized using Isoflurane inhalation and killed by cervical dislocation. Organs (heart, aorta, kidneys, brain, blood and tibia) were collected, with heart and aorta being dissected appropriately as described below. All organs were then snap frozen in liquid nitrogen, and stored at −80° C. if they were not used for vascular reactivity studies conducted on the day mice were killed.\nTo measure collagen deposition, frozen sections of heart, kidney or aorta (all 5 μm thickness) were air dried for 10 minutes and were brought through 3 times xylene (2 minutes each), and 3 times absolute alcohol washes before being rinsed in tap H2O for 30 seconds. Staining with an optimal concentration of picrosirius red (in this instance 0.05% picrosirius red diluted in saturated picric acid) was performed and left for an hour. Sections were then rinsed in water and differentiated in 0.01 M HCl for 2 minutes, followed by dehydration via 3 times absolute alcohol washes. Then, slides were brought through 3 times xylene washes before being cover slipped according to standard histological techniques using DPX as the mounting medium. […]"}
{"smiles": "CC(=O)C1=C(C)OC(N)=C(C#N)C1c1ccc(C(=O)O)cc1.N", "note": "(centres unmarked) [Compound 1, 4-(3-acetyl-6-amino-5-cyano-2-methyl-4H-pyran-4-yl)benzoic acid]", "values": [{"measurement": "age-induced collagen expression in the heart (picrosirius red)", "setting": "compound 1 at 500 ng/kg/min", "value": "reverse"}]}
{"smiles": "N[C@H]1CCSSC[C@@H](C(=O)NCc2ccccc2CC(=O)O)NC(=O)C[C@H](Cc2ccc(O)cc2)NC1=O", "note": "[Compound 2]", "values": [{"measurement": "age-induced collagen expression in the heart (picrosirius red)", "setting": "compound 2 at 50 ng/kg/min", "value": "reverse"}]}
